Results published in BindingDB's records for doi:10.1039/d3md00036b (n/a, 2023).

Target: Metallo-beta-lactamase type 2 (Klebsiella pneumoniae, UniProt C7C422)
Test: Binding affinity to bacterial NDM-1 (unknown origin) assessed as inhibition constant

Metallo-beta-lactamase type 2, sequence (C7C422 whole entry): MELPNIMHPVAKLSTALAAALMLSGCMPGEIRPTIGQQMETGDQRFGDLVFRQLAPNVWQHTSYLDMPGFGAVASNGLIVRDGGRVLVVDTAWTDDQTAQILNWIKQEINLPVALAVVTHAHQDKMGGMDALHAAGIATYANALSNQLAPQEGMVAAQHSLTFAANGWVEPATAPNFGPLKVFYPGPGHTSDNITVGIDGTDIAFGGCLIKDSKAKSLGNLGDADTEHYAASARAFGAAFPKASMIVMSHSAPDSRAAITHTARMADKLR

For `CN1CCN(C(=S)N/N=C/c2ccccc2O)CC1`, which Ki is on record?
The Ki was 0.44 nM.
